Results from US12378268B2, “Heterocyclic THR-β receptor agonist compound and preparation method and use therefor” (Hepagene Therapeutics (HK) Limited, priority 2019, dated 2025).
Where two headings read alike, the source gives them in different places.

What was measured:
THR-β = target: T1, THR-β (Homo sapiens, UniProt P10828); experiment: Test of the binding ability of the compound to TRβ (TRβ LBD/RXR, biotin-SRC2-2 co-activating peptide, 665/615 nm fluorescence ratio); type: biochemical; conditions: for Emax: activity relative to positive control; for α/β selectivity (multiple): calculated after being standardized with T3
T1 construct: TRB LBD, GST purchased from Thermo Fisher; purchased Thermo Fisher PV4762
T1 sequence (P10828 217-461 limits assumed, other chains not shown): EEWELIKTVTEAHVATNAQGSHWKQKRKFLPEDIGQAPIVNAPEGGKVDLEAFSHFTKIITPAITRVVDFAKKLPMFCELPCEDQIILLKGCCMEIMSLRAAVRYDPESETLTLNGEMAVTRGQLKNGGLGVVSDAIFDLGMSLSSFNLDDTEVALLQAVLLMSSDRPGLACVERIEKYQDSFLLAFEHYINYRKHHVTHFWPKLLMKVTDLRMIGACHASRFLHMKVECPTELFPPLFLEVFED
T1 sequence (P28702 whole entry partner, other chains not shown, the tested form may be a part): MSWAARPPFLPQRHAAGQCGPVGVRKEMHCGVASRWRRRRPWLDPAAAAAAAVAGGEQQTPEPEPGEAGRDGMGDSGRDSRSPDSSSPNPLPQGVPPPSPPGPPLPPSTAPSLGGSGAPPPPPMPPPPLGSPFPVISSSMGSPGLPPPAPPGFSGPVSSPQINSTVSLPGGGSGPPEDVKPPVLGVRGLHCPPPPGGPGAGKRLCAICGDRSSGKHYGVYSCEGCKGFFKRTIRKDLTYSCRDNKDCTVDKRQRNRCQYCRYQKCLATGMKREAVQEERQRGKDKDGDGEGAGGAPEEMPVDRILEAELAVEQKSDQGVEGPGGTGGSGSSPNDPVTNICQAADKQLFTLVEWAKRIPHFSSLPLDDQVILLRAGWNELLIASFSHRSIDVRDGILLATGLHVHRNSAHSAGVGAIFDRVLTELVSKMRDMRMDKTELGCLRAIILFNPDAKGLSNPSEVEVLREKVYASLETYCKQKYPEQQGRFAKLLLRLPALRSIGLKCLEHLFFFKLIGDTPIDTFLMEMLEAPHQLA
Protocol: 1. Main experimental materials and instruments:
Biotin-SRC2-2 co-activating peptide purchased from Sangon Biotech (Shanghai) Co., Ltd.
TRB LBD, GST purchased from Thermo Fisher (product No. PV4762)
Europium-conjugated anti-glutathione antibody purchased from Cisbio (product No. 61GSTKLB)
Streptavidin-D2 purchased from Cisbio (product No. 610SADAB)
(§1) 4.2 The activity percentage was calculated as follows: […]
(§2) RatioCompound: Average of the relative ratios of the compound wells of the embodiments
(§3) RatioPositive: Average of the relative ratios of all positive control wells.
(§4) RatioBlank: Average of the relative ratios of all negative control wells.
(§5) EC50 was calculated by fitting the relationship between activity (%) and compound logarithmic concentration with Graphpad 5.0 by a nonlinear regression method.
(§6) Y=Bottom+ (top-bottom)/(1+10^((LogEC50−X)*slope))
(§7) X: Compound logarithmic concentration Y: Percentage activity

THR-α = target: T2, THR-α (Homo sapiens, UniProt P10827); experiment: Test of the binding ability of the compound to TRα (TRα LBD/RXRα, biotin-SRC2-2 co-activating peptide, 665/615 nm fluorescence ratio); type: biochemical; conditions: for Emax: activity relative to positive control
T2 construct: TR-a LBD, GST purchased from Thermo Fisher; purchased Thermo Fisher PV4762
T2 sequence (P10827 163-410 isoform P10827-2 limits assumed, other chains not shown): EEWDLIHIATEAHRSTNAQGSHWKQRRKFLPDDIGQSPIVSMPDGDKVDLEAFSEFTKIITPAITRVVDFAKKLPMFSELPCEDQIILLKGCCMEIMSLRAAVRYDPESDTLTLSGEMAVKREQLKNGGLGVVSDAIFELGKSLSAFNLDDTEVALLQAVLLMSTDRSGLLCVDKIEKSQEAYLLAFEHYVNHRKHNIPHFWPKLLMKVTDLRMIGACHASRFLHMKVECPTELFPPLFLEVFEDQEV
T2 sequence (P19793 whole entry partner, other chains not shown, the tested form may be a part): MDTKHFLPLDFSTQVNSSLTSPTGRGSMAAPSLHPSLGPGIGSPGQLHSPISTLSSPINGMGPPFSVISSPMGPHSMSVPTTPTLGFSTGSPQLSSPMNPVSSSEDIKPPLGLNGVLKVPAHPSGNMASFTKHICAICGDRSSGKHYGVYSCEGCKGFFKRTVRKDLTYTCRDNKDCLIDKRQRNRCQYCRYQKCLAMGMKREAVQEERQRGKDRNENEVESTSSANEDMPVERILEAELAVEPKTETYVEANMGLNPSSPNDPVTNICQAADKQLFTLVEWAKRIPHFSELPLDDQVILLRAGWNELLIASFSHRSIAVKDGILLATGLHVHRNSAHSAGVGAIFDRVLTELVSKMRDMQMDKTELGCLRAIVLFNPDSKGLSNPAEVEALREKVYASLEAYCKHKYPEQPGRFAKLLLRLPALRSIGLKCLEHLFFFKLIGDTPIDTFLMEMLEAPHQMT
Protocol: as §1, §2, §3, §4, §5, §6, §7

[1] = Drug metabolism experiment on prodrug in SD rats: concentration in liver compared with blood; type: in vivo; conditions: SD rats; for transformation of prodrug into active metabolite 1 in the liver: oral 3 mg/kg, in words
Protocol: (§8) Test 3: Drug metabolism experiment on prodrug in SD rats
(§9) In the experiment, […] of 12 male SD rats having similar body weights were selected and orally administered compound 9, compound 10, and the control drug VK2809 (the prodrug of MB07444, structured as shown below) at a dose of 3 mg/kg at a single time, respectively, and blood and liver samples were collected at different time points.
(§10) Solutions of compound 9/compound 10 and VK2809 with a final concentration of 0.6 mg/mL were respectively prepared, and the ratio between the solvents used for the preparation was PEG400: pure water =50:50 (v/v).
(§11) No randomization was performed. The weights of the animals were measured before administration, and healthy animals with similar body weights were selected for inclusion in the experiment. The oral dose was 3 mg/kg.
(§12) At least 0.2 mL of blood was collected from the tail vein or jugular vein, and heparin sodium was used as the anticoagulant.
(§13) After being collected, a blood sample was placed in a marked ice-water bath centrifuge tube, plasma was quickly separated by centrifugation under centrifugation conditions: 3500 rpm, 10 minutes, and 4° C., and the plasma was stored under −40° C. for testing.
After the liver sample was collected, its surface was washed with normal saline, dried with medical gauze, placed in a labeled small ziplock bag, and stored under −40° C. for testing.
(§14) Q TRAP6500 mass spectrometer with ESI source was used to perform negative ion MRM scanning. An LC-MS/MS analysis method was used to detect the contents of compound 9, compound 10 and its active metabolite 1, VK2809 and its active metabolite MB07444 in the plasma and liver. The metabolic kinetics data analysis software WinNonlin 7.0 was used to calculate the concentration data of plasma, and the non-compartmental model (NCA) method was used to calculate the pharmacokinetic parameters.
The parameters of concentration in the livers of the SD rats and a comparison with the concentration in plasma are shown in Table 3 below: […]

[2] = Drug metabolism experiment on prodrug in SD rats: plasma pharmacokinetic parameters; type: in vivo; conditions: for concentration of prodrug in plasma / transformation of prodrug into the active parent drug after oral administration: oral 3 mg/kg, in words
Protocol: as §8, §9, §10, §11, §12
15 min, 30 min, 1 h, 2 h, 4 h, 6 h, 8 h, 24 h after administration.
as §13, §14

[3] = plasma, oral 3 mg/kg Compound 9
[4] = male, Sprague-Dawley (SD), rat, plasma, po, 3 mg/kg, oral 3 mg/kg Compound 10
[5] = male, Sprague-Dawley, rat, liver, po, 3 mg/kg, 1 h, oral 3 mg/kg VK-2809, read-out: Ct Liver
[6] = male, Sprague-Dawley, rat, liver, po, 3 mg/kg, 4 h, oral 3 mg/kg VK-2809, read-out: Ct Liver
[7] = male, Sprague-Dawley, rat, liver, po, 3 mg/kg, 8 h, oral 3 mg/kg VK-2809, read-out: Ct Liver
[8] = male, Sprague-Dawley, rat, liver/plasma, po, 3 mg/kg, 1 h, oral 3 mg/kg VK-2809, read-out: Liver-to-blood ratio
[9] = male, Sprague-Dawley, rat, liver/plasma, po, 3 mg/kg, 4 h, oral 3 mg/kg VK-2809, read-out: Liver-to-blood ratio
[10] = male, Sprague-Dawley, rat, liver/plasma, po, 3 mg/kg, 8 h, oral 3 mg/kg VK-2809, read-out: Liver-to-blood ratio
[11] = male, Sprague-Dawley, rat, plasma, po, 3 mg/kg, 1 h, oral 3 mg/kg VK-2809, read-out: Ct Blood
[12] = male, Sprague-Dawley, rat, plasma, po, 3 mg/kg, 4 h, oral 3 mg/kg VK-2809, read-out: Ct Blood
[13] = male, Sprague-Dawley, rat, plasma, po, 3 mg/kg, 8 h, oral 3 mg/kg VK-2809, read-out: Ct Blood
[14] = male, Sprague-Dawley (SD), rat, plasma, po, 3 mg/kg, oral 3 mg/kg VK2809
[15] = male, Sprague-Dawley (SD), rat, plasma, po, 3 mg/kg, plasma, oral 3 mg/kg VK2809, read-out: Cmax

Row | EC50 (THR-β) [nM] | Emax (THR-β) [%] | EC50 (THR-α) [nM] | Emax (THR-α) [%] | α/β selectivity (multiple) (THR-β) | concentration at 1 h [1, 5] [ng/g] | concentration at 4 h [1, 6] [ng/g] | concentration at 8 h [1, 7] [ng/g] | Kp at 1 h [1, 8] | Kp at 4 h [1, 9] | Kp at 8 h [1, 10] | concentration at 1 h [1, 11] [ng/g] | concentration at 4 h [1, 12] [ng/g] | concentration at 8 h [1, 13] [ng/g] | AUC(0-inf) [2, 14] [ng·h/mL] | AUC(0-t) [2, 14] [ng·h/mL] | Tmax [2, 14] [h] | SMILES | transformation of prodrug into active metabolite 1 in the liver [1] | concentration of prodrug in plasma [2] | transformation of prodrug into the active parent drug after oral administration [2] | other results
1 | 33 | 113 | 51 | 113 | 2.9 | 214 | 952 | 542 | 15.9 | 14 | 13.6 | 5.9 | 16.9 | 29.6 | 448 | 420 | 7.33 | Cc1cc(OCP(=O)(O)O)cc(C)c1Cc1ccc(O)c(C(C)C)c1 [MB07444, reference compound] |  |  |  | concentration at 24 h ([1]; male, Sprague-Dawley, rat, liver, po, 3 mg/kg, 24 h, oral 3 mg/kg VK-2809, read-out: Ct Liver): 37 ng/g; Kp at 24 h ([1]; male, Sprague-Dawley, rat, liver/plasma, po, 3 mg/kg, 24 h, oral 3 mg/kg VK-2809, read-out: Liver-to-blood ratio): 9.9; concentration at 24 h ([1]; male, Sprague-Dawley, rat, plasma, po, 3 mg/kg, 24 h, oral 3 mg/kg VK-2809, read-out: Ct Blood): 3.6 ng/g; half-life [2, 14]: 5.29 h; Cmax [2, 15]: 38.8 ng/mL; Kel ([2]; plasma, oral 3 mg/kg VK2809): 0.131 h⁻¹
2 |  |  |  |  |  | 39 | 30 | 17 | 8.6 | 5.2 | 4 | 2.9 | 4.8 | 5.6 | 83.3 | 43.6 | 6 | Cc1cc(OC[P@@]2(=O)OCC[C@@H](c3cccc(Cl)c3)O2)cc(C)c1Cc1ccc(O)c(C(C)C)c1 [VK2809, reference compound] |  |  |  | Ct Blood ([1]; 24 h, oral 3 mg/kg VK-2809): BLQ; Ct Liver ([1]; 24 h, oral 3 mg/kg VK-2809): BLQ; half-life [2, 14]: 4.81 h; Cmax [2, 15]: 9.9 ng/mL; Kel ([2]; plasma, oral 3 mg/kg VK2809): 0.273 h⁻¹

Second part, the compound before the results:

Row | SMILES | EC50 (THR-β) [nM] | Emax (THR-β) [%] | EC50 (THR-α) [nM] | Emax (THR-α) [%] | α/β selectivity (multiple) (THR-β) | concentration at 1 h [1, 5] [ng/g] | concentration at 4 h [1, 6] [ng/g] | concentration at 8 h [1, 7] [ng/g] | Kp at 1 h [1, 8] | Kp at 4 h [1, 9] | Kp at 8 h [1, 10] | concentration at 1 h [1, 11] [ng/g] | concentration at 4 h [1, 12] [ng/g] | concentration at 8 h [1, 13] [ng/g] | AUC(0-inf) [2, 14] [ng·h/mL] | AUC(0-t) [2, 14] [ng·h/mL] | Tmax [2, 14] [h] | transformation of prodrug into active metabolite 1 in the liver [1] | concentration of prodrug in plasma [2] | transformation of prodrug into the active parent drug after oral administration [2] | other results
3 | Cc1cc(OCP(=O)(O)O)cc(C)c1Oc1ccc(O)c2c1CCC2(C)C [Compound 5, ((4-((7-hydroxy-1,1-dimethyl-2,3-dihydro-1H-indene-4-position)oxy)-3,5-dimethylphenoxy)methyl) phosphoric acid] | < 100 | 110 | < 200 | 102 |  |  |  |  |  |  |  |  |  |  |  |  |  |  |  |  | 
4 | CC1(C)CCc2c(Cc3c(Cl)cc(OCP(=O)(O)O)cc3Cl)ccc(O)c21 [Compound 6, ((3,5-dichloro-4-((7-hydroxy-1,1-dimethyl-2,3-dihydro-1H-indene-4-position)methyl)phenoxy)methyl) phosphoric acid] | 108 | 79 | 50 | 99.2 | 0.7 |  |  |  |  |  |  |  |  |  |  |  |  |  |  |  | 
5 | Cc1cc(OC[P@@](=O)(N[C@@H](C)C(=O)OC(C)C)Oc2ccccc2)cc(C)c1Cc1ccc(O)c2c1CCC2(C)C [Compound 9] |  |  |  |  |  |  |  |  |  |  |  |  |  |  |  |  |  | rapidly metabolized in the liver to produce active metabolite compound 1 | not high | quickly transformed into the active parent drug compound 1 | Ct Blood ([1]; 1 h, oral 3 mg/kg Compound 9): BLQ; Ct Liver ([1]; 1 h, oral 3 mg/kg Compound 9): BLQ; Ct Blood ([1]; 4 h, oral 3 mg/kg Compound 9): BLQ; Ct Liver ([1]; 4 h, oral 3 mg/kg Compound 9): BLQ; Ct Blood ([1]; 8 h, oral 3 mg/kg Compound 9): BLQ; Ct Liver ([1]; 8 h, oral 3 mg/kg Compound 9): BLQ; Ct Blood ([1]; 24 h, oral 3 mg/kg Compound 9): BLQ; Ct Liver ([1]; 24 h, oral 3 mg/kg Compound 9): BLQ; AUC0−t [2, 3]: BLQ; AUC0−∞ [2, 3]: BLQ; Cmax [2, 3]: BLQ
6 | Cc1cc(OC[P@@]2(=O)OCC[C@@H](c3cccc(Cl)c3)O2)cc(C)c1Cc1ccc(O)c2c1CCC2(C)C [Compound 10] |  |  |  |  |  |  |  |  |  |  |  |  |  |  |  |  |  | much better than that of VK2809 | not high | quickly transformed into the active parent drug compound 1 | Ct Blood ([1]; 24 h, oral 3 mg/kg Compound 10): BLQ; Ct Liver ([1]; 24 h, oral 3 mg/kg Compound 10): BLQ; Kp at 1 h ([1]; male, Sprague-Dawley (SD), rat, liver / plasma (heading prints blood), po, 3 mg/kg, 1 h, oral 3 mg/kg Compound 10, read-out: Liver-to-blood ratio): 16.2; Kp at 4 h ([1]; male, Sprague-Dawley (SD), rat, liver / plasma (heading prints blood), po, 3 mg/kg, 4 h, oral 3 mg/kg Compound 10, read-out: Liver-to-blood ratio): 7.8; Kp at 8 h ([1]; male, Sprague-Dawley (SD), rat, liver / plasma (heading prints blood), po, 3 mg/kg, 8 h, oral 3 mg/kg Compound 10, read-out: Liver-to-blood ratio): 4.7; concentration at 1 h ([1]; male, Sprague-Dawley (SD), rat, liver, po, 3 mg/kg, 1 h, oral 3 mg/kg Compound 10, read-out: Ct Liver): 141 ng/g; concentration at 4 h ([1]; male, Sprague-Dawley (SD), rat, liver, po, 3 mg/kg, 4 h, oral 3 mg/kg Compound 10, read-out: Ct Liver): 273 ng/g; concentration at 8 h ([1]; male, Sprague-Dawley (SD), rat, liver, po, 3 mg/kg, 8 h, oral 3 mg/kg Compound 10, read-out: Ct Liver): 46.5 ng/g; concentration at 1 h ([1]; male, Sprague-Dawley (SD), rat, plasma (heading prints blood), po, 3 mg/kg, 1 h, oral 3 mg/kg Compound 10, read-out: Ct Blood): 8.8 ng/g; concentration at 4 h ([1]; male, Sprague-Dawley (SD), rat, plasma (heading prints blood), po, 3 mg/kg, 4 h, oral 3 mg/kg Compound 10, read-out: Ct Blood): 7.9 ng/g; concentration at 8 h ([1]; male, Sprague-Dawley (SD), rat, plasma (heading prints blood), po, 3 mg/kg, 8 h, oral 3 mg/kg Compound 10, read-out: Ct Blood): 10.3 ng/g; AUC(0-inf) [2, 4]: 89.3 ng·h/mL; AUC(0-t) [2, 4]: 69.2 ng·h/mL; Tmax [2, 4]: 4.67 h; half-life [2, 4]: 1.73 h; Cmax ([2]; male, Sprague-Dawley (SD), rat, plasma, po, 3 mg/kg, plasma, oral 3 mg/kg Compound 10, read-out: Cmax): 19.9 ng/mL; Kel ([2]; plasma, oral 3 mg/kg Compound 10): 0.428 h⁻¹
